# Assay results as given in patent publication US20230174523A1, “BENZENESULFONAMIDE DERIVATIVES AS TRAP1 MODULATORS AND USES THEREOF” (Amathus Therapeutics, Inc., priority 2020, published 2023).
# System: primary rat dopaminergic neurons
# Assay: ROS production in primary dopaminergic TH-positive neurons injured with 6-OHDA
# Type: cell-based
# Conditions: injury with 6-OHDA (20 μM, 4 h); FIG. 5
# Procedure: Rat dopaminergic neurons were cultured as described by Visanji et al., 2008. Briefly, pregnant female rat of 15 days of gestation are sacrificed using a deep anesthesia with CO2 chamber and a cervical dislocation. The midbrains obtained from 15-day-old rat embryos are dissected under a microscope. The embryonic midbrains are removed and placed in ice-cold medium of Leibovitz (L15) containing 2% of Penicillin-Streptomycin (PS) and 1% of bovine serum albumin (BSA). The ventral portion of the mesencephalic flexure, a region of the developing brain rich in dopaminergic neurons, is used for the cell preparations.
# The midbrains are dissociated by trypsinisation for 20 min at 37° C. (solution at a final concentration of 0.05% trypsin and 0.02% EDTA). The reaction is stopped by the addition of Dulbecco's modified Eagle's medium (DMEM) containing DNAase I grade II (0.5 mg/mL) and 10% of foetal calf serum (FCS). Cells are then mechanically dissociated by 3 passages through a 10 mL pipette. Cells are then centrifuged at 180×g for 10 min at +4° C. on a layer of BSA (3.5%) in L15 medium. […] Viable cells are counted in a Neubauer cytometer using the trypan blue exclusion test. […] Six wells per condition are assessed. […]
compound,measurement,value
Cc1nn(C)c2sc(C(=O)Nc3ccc(F)c(S(=O)(=O)Nc4ccc(Cl)cc4)c3)cc12 [Compound 705],reactive oxygen species (ROS) production,reduction in ROS
